This note sets out measurements from patent US20180356397A1, “MIMICRY OF NEUROINFLAMMATORY MICROENVIRONMENTS AND METHODS OF USE AND MANUFACTURING THEREOF” (priority 2017, published 2018).

The subject of assay [1] is neutrophils co-cultured with A-beta activated microglia. The assay is described as follows: neutrophil recruitment toward soluble A-beta activated microglia (co-culture in microfluidic device). Type of assay: cell-based, human. To be noted: for recruiting of neutrophils in the recapitulated AD environment: microglia-derived chemokines by A-beta stimulation; for higher neutrophil migration in central chamber: soluble A-beta 2.2 uM, 6 hours. The text has this: Microglial cells are resident brain immune cells and stimulated by soluble A-beta42, which is a signature of human AD neurotoxic peptide. Based on our previous observation of neutrophil accumulation on A-beta plaques in in vivo, we hypothesize that A-beta activated microglial cells has a critical role in recruiting neutrophil. Stimulated microglial cells can release various types of chemokines and/or cytokines to increase inflammatory behavior or to clear A-beta in inflamed region. Furthermore, those secreted chemokines and/or cytokines can recruit other cell types including peripheral immune cells (FIG. 9A). To modulate this whole process, we established an in vitro AD brain-blood model (ADBBM) using microglia and neutrophil to mimic the brain microenvironment. To accommodate the different cells separately in a single microfluidic platform, we employed mechanically separated two chambers, which are connected through neutrophil specific migration channels (10×5×500 μm in width, height, and length) forming gradients of chemokines and/or cytokines (FIG. 9B).
Compared to a parallel configuration having equal surface areas for cell loading and cell collection, the asymmetric configuration of the current microfluidic device 10 has a small central cell collecting compartment (central chamber 30), which is smaller than a large annular cell loading compartment (annular chamber 50) by a factor of 3, 4, 5, 6, 7, 8, 9, 10 or greater. […] This enhances the gradient formation and detection of recruitment. The long and thin migration channels 60 can block spontaneous entrance of inactivated neutrophil through mechanical constraints. Using this platform, we could culture microglial cells for extended periods to accumulate enough soluble factors and could observe neutrophil signature movement at single cell resolution, in real-time. Red membrane dye stained microglial cells plated first in central chamber 30 and incubated for 3 days with soluble A-beta to modulate chemokine/cytokine enriched AD microenvironment. Freshly isolated neutrophil labeled with green membrane dye plated on annular chamber 50 and incubated under microscope to observe their movement and accumulation in central chamber 30. Precise numbers of neutrophils are reproducibly loaded and uniformly distributed in annular chamber 50 and this design allows us to evaluate the response of neutrophil to various types of chemokines and/or cytokines. We tested 200 independent conditions at the same time, by using real time imaging of process in an array of twenty-five formatted on a single well plate 140 or an array of one-hundred nineteen formatted single well plate 140 (FIG. 7 and FIG. 8).
To validate the dependency of neutrophil migration toward soluble A-beta activated microglia, microglial cells plated on central chamber 30 with various cell numbers (5,000, 10,000, 20,000 cells). Microglial cells are pre-labeled with membrane dye according to manufacturer's protocol to observe their morphology change. After 24 hour incubation of microglia alone, prepared soluble A-beta (2.2 uM) with reduced 1% FBS Prigrowlll media were changed to incubate further for 48 hours. After 48 hours, freshly isolated neutrophil labeled with green membrane dye plated on annular chamber 50 and incubated on microscopic real time imaging chamber. Neutrophil (green) migration could be observed toward soluble A-beta activated microglia (red) cultured central chamber 30 after 6 hours (FIG. 11A). 2.4-, 1.2-times higher neutrophil migration could be observed in central chamber 30 in response to 10,000 and 20,000 cultured microglia in central chamber 30 by showing the dependency of neutrophil recruitment in cell numbers. […] By utilizing high-resolution and spatiotemporal controlled microscopic imaging method, we also can quantify the persistent movement of microglial cells in various stimulations. […]

Assay [2] deals with human neutrophils. The assay is described as follows: microfluidic chemotactic model for neutrophil migration (platform validation with fMLP). Type of assay: cell-based. To be noted: for neutrophils migrated back from chemoattractant / neutrophils migrated towards chemoattractant: persistence at 1 hour. How it is done:
FIG. 10F. Neutrophil recruitment was quantified by comparing the fraction of cells inside the central chamber (CC) to the total number of cells in the corresponding angular chamber device (AC). The R.I. is calculated as R.I.=(CCDay i−CCDay 0)/ACDay i, where Day i is the number of cells in the central chamber and ADDay i is the number of cells in angular chamber. The recruitment index, R.I., is obtained by normalizing with the subtraction at ‘CCDay 0’ cell numbers.
We validated the assay by measuring the migration and accumulation of neutrophils toward a panel of known chemoattractant. To compare the effect of fMLP in various concentrations on neutrophil recruitment, we defined a neutrophil recruitment index, R.I. (FIG. 10B, FIG. 10F), representing the fraction of neutrophil recruited to the central chamber after loading fMLP in the central chamber. We compared the R.I. values under various soluble factors, (fMLP, A-beta, and media) (FIG. 10B) and could observe predominant neutrophil (green) recruitment with N-formyl-methionine-leucine-phenylalanine (fMLP) (10 nM) in central chamber 30 after 6 hours (FIG. 10A). A negligible number of cells entered central chamber in the absence of a chemoattractant by proving that the mechanical barrier 40 can exclude the spontaneous entrance of neutrophil. […] Neutrophils move through migration channels 60 at 18±5 μm/min and could reach central chamber in less than 30 min (FIG. 10G). We compared the migratory response of human neutrophils with various stimulators. […] Concentration-dependent changes in migration patterns in response to fMLP was primarily affect the migrating faction while there was no significant effect on persistent directionality.
(§1) Immortalized microglial cells (SV40-microglia) were purchased from Abm company (ABM Inc., Montreal, Canada). The cells were plated onto T25 cell culture flasks (BD Biosciences, San Jose, Calif., USA) and maintained in Prigrow III Medium (ABM Inc) supplemented with 50 mL FBS (Life Technologies) and 5 mL Pen/Strep (Invitrogen) in a CO2 cell culture incubator. Cell culture media were changed every 3 days until cells were confluent. For neutrophil isolation, human peripheral blood samples from healthy volunteers, aged 18 years and older, were purchased from InvivoGen. Peripheral blood was drawn in 10-ml tube containing a final concentration of 5 mM EDTA (Vacutainer; Becton Dickinson). Nucleated cells were isolated using a HetaSep gradient, followed by the EasySep Human Neutrophil Enrichment Kit (STEMCELL Technologies, Vancouver, Canada) according to the manufacturer's protocol.
After microglia loading, cells were recorded using time-lapse imaging using a fully automated Nikon TiE microscope with a heated incubator to 37° C. and 5% CO2 (10× magnification; Micro Device Instruments, Avon, Mass., USA). To achieve accurate cell tracking, the maximum time resolution of acquisition was 0.2 frames per second.
FIG. 10. Design and validation of a microfluidic chemotactic model for neutrophil migration. (10A) Neutrophils (green) instantly migrated along microchannels designed for neutrophils with a gradient of fMLP (10 nM) and accumulated in a central chamber, the source of fMLP. (10C) Time-lapse images show a simultaneous bi-directional migration of neurophils under the fMLP gradient on a single cellular level. The red arrows indicate persistent forward migration of neutrophils along the gradient of the chemoattractant and green arrows indicate the backward migration against the gradient. […] Combined data from n=5 independent experiments. Scale bars: (10A) 500 μm, (10C) 50 μm. Data represented as mean±SEM.

For assay [3], the system named is microglia. The assay is described as follows: A-beta stimulation of microglia and analysis of cytokine release / activation markers. Type of assay: cell-based, human.
Excerpt: To characterize the phenotype changes in microglia induced by soluble A-beta, individual microglial cells were monitored for three days using time-lapse imaging microscopy. […] Morphological changes could be observed at 48 hrs following cell seeding (FIG. 9C bottom, +A-beta). As determined by image analysis, microglial cells became large and switched into more amoeboid type as the length and area of microglial somata (cell bodies) increased in all direction (FIG. 9C). And filopodia, which is observed in resting mode microglia, could not be observed in A-beta stimulated microglia. Furthermore, exposure of microglia to soluble A-beta induced up-regulation of microglial activation markers such as CD11b (FIGS. 9D and 9E) and CD68 (FIG. 9F). […] Membrane stained microglial cells (red) immunostained with anti-CD68 to observe activation of microglial cells with A-beta.
As microglia are the predominant resident immune cells of the brain, we next determined the effects of the soluble A-beta AD microenvironment on the inflammatory activity of microglia. Exposure to soluble A-beta was associated with significant increases in chemokine release (FIG. 9B).
as §1
For immunofluorescent stain, we rinsed the cells in medium twice with DPBS. To fix, cells were incubated in fresh 4% paraformaldehyde aqueous solution (157-4, ElectronMicroscopy Sciences) for more than 15 minutes at RT followed by rinsing twice with DPBS. To permeabilize, cells were incubated in 0.1% Triton X-100 in PBST (phosphate buffered saline with 0.1% tween®20) for 15 minutes at RT. To block, cells were incubated in 3% human serum albumin for overnight in PBST at 4° C. After incubating with the primary antibody solutions for 24 hour at 4° C., the cells were washed five times. The following antibody (and dilutions) were used: anti-cd11b (1:100, Life Technologies).
Microfluidic devices 10 were cultured for 72 hours, followed by incubation in A-beta containing medium with fetal bovine serum reduced from 10% to 1%. Microglia culture on central chamber 30 were stimulated with A-beta (Sigma Aldrich) at 2.2 uM with […] serum for 72 hrs. The cytokine release profile was assayed with the Human Cytokine 37-membrane kit array (R&D systems) and the resulting cytokine release profiles were quantified with ImageJ analysis.
FIG. 9. Activation of microglial inflammation with A-beta: chemokine release, morphogenesis, and marker expression. […] Both the membrane area (9D) and the amounts of expressed CD11b (9E) increase in the activated microglia with A-beta. ndevice=3, ncell=150. Scale bars: 30 μm. All parameters are presented as mean±SEM.

In assay [4] the test system is human primary microglial. Description: microfluidic chemotaxis platform for microglial motility under soluble A-beta gradient. Particulars: soluble monomeric and oligomeric A-beta, picomolar to nanomolar concentrations. Type of assay: cell-based. The text has this: Activated microglia initially take on various morphologies: rounded, ramified shapes, rods to amoeboid forms followed by motile activation, which complicates the visual tracking of individual cells. Previous in vitro attempts to study rat microglial migration in the presence of short-lived damaged axons could not establish long-lasting gradients and could not conclusively differentiate slow accumulation of microglia from heterogeneous activation and random navigation. We developed a novel, microfluidic chemotaxis platform to study the motility of those microglia selectively responding to stimuli in a regulated manner. To understand the specific roles of A-beta in microglial accumulation in the context of AD, we generated a week-long lasting soluble A-beta gradient, patterned insoluble surface-bound A-beta to mimic A-beta signature in AD brains, and isolated human primary microglial responding to A-beta in our platforms. We tested 200 independent conditions in a single batch, while using real time imaging of process in an array of twenty-five formatted single well plate. […] We also observed discernable co-localization of microglia to the sites of insoluble A-beta, representing A-beta plaques.

[5] abbreviates: microglia exposed to soluble A-beta compared to microglia without A-beta.

Bounds are passed on as bounds.

On to “CCL2: microglia-derived chemokine released on A-beta stimulation”, for which the “recruiting of neutrophils in the recapitulated AD environment” value (shortened to “recruiting of neutrophils”) in assay [1] is on record as “effective for recruiting neutrophils”.

“IL8: microglia-derived chemokine released on A-beta stimulation”: the “recruiting of neutrophils” value in assay [1] was “effective for recruiting neutrophils”.

For “N-formyl-methionine-leucine-phenylalanine [fMLP]”, in assay [2] (1 nM fMLP), the “neutrophils migrated back from chemoattractant” value was found to be 17.8±2.8% and the “neutrophils migrated towards chemoattractant” value is listed as 82.2±3.4%. Also, in assay [2] (10 nM fMLP compared to 1 nM fMLP, central chamber, 6 hours), the “magnitude of cell recruitment (recruitment index), 10 nM compared to 1 nM” value is 1.6 times. Moreover, in assay [2] (10 nM fMLP), the “neutrophils migrated back from chemoattractant” value is 11.5±1.7% and the “neutrophils migrated towards chemoattractant” value is given as 88.5±3.8%. Also, in assay [2] (fMLP in central chamber), the “time to plateau of neutrophil response” value was no more than 6 h. The “decrease in the total fraction of migrating cells” value in assay [2] (increasing fMLP from 10 nM to 1 μM) came out at 63%. In assay [2] (migrating towards fMLP), the “speed of neutrophils moving through migration channels” value is given as 18±5 μm/min and the “time to reach central chamber” value is on record as “less than 30 min”.

With amyloid-beta [A-beta], the “microglial activation markers CD11b and CD68” value in assay [3] (exposure of microglia to soluble A-beta, immunostaining) is “up-regulation”. The “secretion of anti-inflammatory markers (IL-1RA, IL-4, IL-10, TGF-β)” value in assay [3] (microglia exposed to soluble A-beta) is recorded as “very low or no detectable”. In assay [3] (setting [5]), the CCL2 concentration increase was 1.4 fold; the IL-6 concentration increase is listed as 1.9 fold; the IL-8 concentration increase was 2.3 fold; the “chemokine release of CCL3/4, CCL5” value is “new chemokine release”. For the same molecule, in assay [1] (10,000 microglia in central chamber), the “higher neutrophil migration in central chamber” value is 2.4 times. In addition, the “higher neutrophil migration in central chamber” value in assay [1] (20,000 microglia in central chamber) was determined as 1.2 times. In addition, in assay [1] (A-beta alone, no microglia), the neutrophil migration entry is recorded as “Negligible neutrophil migration”. Besides, the “persistence of neutrophil migration” value in assay [1] (co-culture with soluble A-beta activated microglial cells) is recorded as “about 92%”. In addition, in assay [4], the microglial chemoattraction result was “acting as a microglial chemoattractant”.

B1: CCL5: microglia-derived chemokine released on A-beta stimulation (protein, UniProt P13501 24-91, looked up)
C-C motif chemokine 5: SPYSSDTTPCCFAYIARPLPRAHIKEYFYTSGKCSNPAVVFVTRKNRQVCANPEKKWVREYINSLEMS
As for B1, in assay [1], the “recruiting of neutrophils” value was “effective for recruiting neutrophils”.
